This passage reports Ki results from US8318759B2, “Pyrrolidine derivatives as NK3 receptor antagonists” (Hoffmann-La Roche Inc., priority 2009, dated 2012).

For the experiment, the target named is T1, human NK3 receptor (Homo sapiens, UniProt P29371).
T1 construct: expressed in transfected cells; host or cells: HEK293 cells (transient expression), membranes
T1 sequence (P29371 1-465): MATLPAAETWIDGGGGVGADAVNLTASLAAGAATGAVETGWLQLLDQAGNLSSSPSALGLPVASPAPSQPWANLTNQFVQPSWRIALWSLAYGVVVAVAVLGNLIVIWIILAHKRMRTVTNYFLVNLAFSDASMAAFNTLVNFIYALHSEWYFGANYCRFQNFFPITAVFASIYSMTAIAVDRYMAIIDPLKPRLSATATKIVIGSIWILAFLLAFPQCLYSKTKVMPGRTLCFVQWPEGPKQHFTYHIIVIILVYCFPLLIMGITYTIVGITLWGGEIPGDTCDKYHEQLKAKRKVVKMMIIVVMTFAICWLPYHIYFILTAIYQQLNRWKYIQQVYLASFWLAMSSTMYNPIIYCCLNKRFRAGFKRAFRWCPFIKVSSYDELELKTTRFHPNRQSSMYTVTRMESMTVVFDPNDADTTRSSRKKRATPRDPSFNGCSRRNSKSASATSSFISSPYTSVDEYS
In words: [3H]SR142801 competition binding assay. Particulars: membrane from HEK293 cells transiently expressing recombinant human NK3 receptor; radioligand [3H]SR142801; Ki from IC50 by Cheng-Prussoff equation. How it is done:
[^3H]SR142801 Competition Binding Assay
hNK3 receptor binding experiment were performed using [^3H]SR142801 (Catalog No. TRK1035, specific activity: 74.0 Ci/mmol, Amersham, GE Healthcare UK limited, Buckinghamshire, UK) and membrane isolated from HEK293 cells transiently expressing recombinant human NK3 receptor. After thawing, the membrane homogenates were centrifuged at 48,000×g for 10 min at 4° C., the pellets were resuspended in the 50 mM Tris-HCl, 4 mM MnCl2, 1 μM phosphoramidon, 0.1% BSA binding buffer at pH 7.4 to a final assay concentration of 5 μg protein/well. […] At the end of the incubation, membranes were filtered onto unitfilter (96-well white microplate with bonded GF/C filter preincubated 1 h in 0.3% PEI+0.3% BSA, Packard BioScience, Meriden, Conn.) with a Filtermate 196 harvester (Packard BioScience) and washed 4 times with ice-cold 50 mM Tris-HCl, pH 7.4 buffer. Nonspecific binding was measured in the presence of 10 μM SB222200 for both radioligands. The radioactivity on the filter was counted (5 min) on a Packard Top-count microplate scintillation counter with quenching correction after addition of 45 μl of microscint 40 (Canberra Packard S. A., Zürich, Switzerland) and shaking for 1 h. Inhibition curves were fitted according to the Hill equation: y=100/(1+(x/IC50)^nH), where nH=slope factor using Excel-fit 4 software (Microsoft). IC50 values were derived from the inhibition curve and the affinity constant (Ki) values were calculated using the Cheng-Prussoff equation Ki=IC50/(1+[L]/KD) where [L] is the concentration of radioligand and KD is its dissociation constant at the receptor, derived from the saturation isotherm. All experiments were performed in duplicate and the mean±standard error (SEM) of the individual Ki values was calculated.
A word on the Ki: it is a dissociation constant, usually derived from enzyme kinetics or from competition with a known ligand. Take `CS(=O)(=O)N1CCN(C(=O)N2C[C@H](CNc3ccc(C#N)cn3)[C@@H](c3ccc(Cl)c(Cl)c3)C2)CC1` [Example 8]: the inhibitory constant (Ki) was 71.1 nM. Next, `CS(=O)(=O)N1CCN(C(=O)N2C[C@H](CNc3ccc(C(F)(F)F)cn3)[C@@H](c3ccc(Cl)c(Cl)c3)C2)CC1` [Example 13, (3S,4S)-{3-(3,4-Dichloro-phenyl)-4-[(5-trifluoromethyl-pyridin-2-ylamino)-methyl]-pyrrolidin-1-yl}-(4-methanesulfonyl-piperazin-1-yl)-methanone]: 6.6 nM. On to `CS(=O)(=O)N1CCN(C(=O)N2C[C@@H](CNc3ccc(C(F)(F)F)cn3)[C@H](c3ccc(Cl)c(Cl)c3)C2)CC1` [Example 14, (3R,4R)-{3-(3,4-Dichloro-phenyl)-4-[(5-trifluoromethyl-pyridin-2-ylamino)-methyl]-pyrrolidin-1-yl}-(4-methanesulfonyl-piperazin-1-yl)-methanone], for which the Ki stood at 92.4 nM.

In the case of `CN(C[C@H]1CN(C(=O)C2CCN(C(=O)C3(C)CC3)CC2)C[C@@H]1c1ccc(Cl)cc1)c1ccc(C#N)cn1` [Example 51, 6-({(3S,4S)-4-(4-Chloro-phenyl)-1-[1-(1-methyl-cyclopropanecarbonyl)-piperidine-4-carbonyl]-pyrrolidin-3-ylmethyl}-methyl-amino)-nicotinonitrile], the inhibitory constant (Ki) stood at 69.9 nM. Next, `CN(C[C@H]1CN(C(=O)C2CCN(C(=O)C3(C)CC3)CC2)C[C@@H]1c1ccc(Cl)cc1)c1ccc(C(F)(F)F)cn1` [Example 53, [4-((3S,4S)-3-(4-Chloro-phenyl)-4-{[methyl-(5-trifluoromethyl-pyridin-2-yl)-amino]-methyl}-pyrrolidine-1-carbonyl)-piperidin-1-yl]-(1-methyl-cyclopropyl)-methanone]: 85.6 nM. With `CN(C[C@H]1CN(C(=O)C2CCN(C(=O)C3(C)CC3)CC2)C[C@@H]1c1ccc(Cl)cc1)c1ncc(C(F)(F)F)cn1` [Example 55, ((3S,4S)-3-(4-Chloro-phenyl)-4-{[methyl-(5-trifluoromethyl-pyrimidin-2-yl)-amino]-methyl}-pyrrolidin-1-yl)-[1-(1-methyl-cyclopropanecarbonyl)-piperidin-4-yl]-methanone], the Ki worked out at 42.9 nM. On to `CC1(C(=O)N2CCC(C(=O)N3C[C@H](CNc4ncc(C(F)(F)F)cn4)[C@@H](c4ccc(Cl)c(Cl)c4)C3)CC2)CC1` [Example 57, {(3S,4S)-3-(3,4-Dichloro-phenyl)-4-[(5-trifluoromethyl-pyrimidin-2-ylamino)-methyl]-pyrrolidin-1-yl}-[1-(1-methyl-cyclopropanecarbonyl)-piperidin-4-yl]-methanone], for which the Ki stood at 1.8 nM.

In the case of `Cc1cc(C(=O)N2C[C@H](CNc3ncc(C(F)(F)F)cn3)[C@@H](c3ccc(Cl)c(Cl)c3)C2)cnn1` [Example 58, {(3S,4S)-3-(3,4-Dichloro-phenyl)-4-[(5-trifluoromethyl-pyrimidin-2-ylamino)-methyl]-pyrrolidin-1-yl}-(6-methyl-pyridazin-4-yl)-methanone], the inhibitory constant (Ki) came to 1.2 nM. Consider `CN(C[C@H]1CN(C(=O)C2CCN(C(=O)C3(C)CC3)CC2)C[C@@H]1c1ccc(Cl)c(Cl)c1)c1ncc(C(F)(F)F)cn1` [Example 59, ((3S,4S)-3-(3,4-Dichloro-phenyl)-4-{[methyl-(5-trifluoromethyl-pyrimidin-2-yl)-amino]-methyl}-pyrrolidin-1-yl)-[1-(1-methyl-cyclopropanecarbonyl)-piperidin-4-yl]-methanone], for which the Ki was determined as 2.3 nM. `Cc1cc(C(=O)N2C[C@H](CN(C)c3ncc(C(F)(F)F)cn3)[C@@H](c3ccc(Cl)c(Cl)c3)C2)cnn1` [Example 60, ((3S,4S)-3-(3,4-Dichloro-phenyl)-4-{[methyl-(5-trifluoromethyl-pyrimidin-2-yl)-amino]-methyl}-pyrrolidin-1-yl)-(6-methyl-pyridazin-4-yl)-methanone]: the inhibition constant (Ki) came to 15.8 nM.
